Measurements as given in patent US20130060020A1, “Compounds useful for treating neurodegenerative disorders” (Satori Pharmaceuticals, Inc., priority 2011, published 2013).
Where two headings read alike, the source gives them in different places.

Legend:
Aβ 42 = assay: % 42 lowering and 40/42 selectivity after dosing in mg/kg (Table 5); assay type: in vivo; conditions: 100 mg/kg
Aβ-38 = Aβ-38 MSD 3-plex ELISA, conditioned media of 2B7 cells; assay type: cell-based; conditions: Homo sapiens, 5 hours treatment
Method: (§1) Assays were conducted to determine the ability of a Compound of Formula I to modulate […], and Aβ-38.
(§2) Plates with capture antibodies were blocked for 1-2 hours at room temperature with 150 μL of the manufactures blocking reagent.
(§3) Cultured 2B7 cells in 96 well plate with 250 μL of media per well until confluent;
(§4) Prepared serial dilutions of compounds in DMSO at 100× the final desired concentration;
(§5) Washed wells with 2B7 cells 1× with 250 μL of media;
(§6) Diluted DMSO stocks 1:100 into media: • Added 250 μL of media containing compounds (1% DMSO) to wells with 2B7 cells for 5 hours at 37° C.
(§7) ELISA Sample Prep: • Diluted conditioned media: 1 part media with 1% DMSO and 1 part blocking buffer; • 150 μL of the 250 μL of conditioned media were used.
(§8) Prepared per manufacturer's protocol (see above). • Seven point standard curve samples were prepared that contained Aβ-42, Aβ-40, and Aβ-38. The highest concentration of Aβ-42 and Aβ-38 was 3,000 pg/mL and the highest concentration of Aβ-40 was 10,000 pg/mL. Subsequent serial dilutions were 1:3 and the final composition of each sample was 1 part blocking buffer and 1 part cell medium containing 1% DMSO.
(§9) Overnight Sample Incubation: • Blocked plates are washed 5× with MSD wash buffer with a plate washer; • […] and blocker G reagent in MSD blocking solution was added; • 25 μL of samples (1 part conditioned media containing 1% DMSO and 1 part MSD blocking buffer) were then added; • Plates were incubated overnight at 4 degrees C. or 2 hours at room temperature.
(§10) Final Wash and Readout: • Washed wells 5× with MSD wash buffer; • Added 150 μL 2×MSD read buffer; • Read with MSD imager.
(§11) Aβ peptide levels for each peptide were calculated from the standard curve using the MSD software provided with the MSD 2400 Imager. Percent vehicle values for each compound dosage were then calculated and fit to a 4 parameter curve generating IC50 values.
(§12) Conditioned media from 2B7 cells (Mayo) was collected after 5 hours of treatment and diluted with 1 volume of Meso Scale Discovery (MSD, Gaithersburg Md.) blocking buffer (1% BSA in MSD wash buffer). For total Aβ measurements, standard-bind, multi-array single spot 96 well MSD ELISA plates were coated with unlabeled 4G8 capture antibody (Covance, Princeton, N.J.) overnight at 4° C. and then blocked with 5% BSA in MSD wash buffer for 1 hour at room temperature with orbital shaking Diluted 2B7 conditioned media were added to the blocked in-house total Aβ MSD plates with SULFO-TAG 6E10 antibody (MSD). For Aβ38, 40 and 42 measurements, diluted 2B7 conditioned media were added to blocked human (6E10) Aβ 3-Plex plates (MSD). Total Aβ and Aβ 3-Plex plates were incubated for 2 hours at room temperature with orbital shaking followed by washing and reading according to the manufacturer's instructions (SECTOR® Imager 2400, MSD). Aβ concentrations were converted to percent vehicle values and used to construct dose response curves which were fitted to […] using GraphPad Prism version 5.00 for Windows, GraphPad Software, San Diego Calif. USA.

Aβ-40 = Aβ-40 MSD 3-plex ELISA, conditioned media of 2B7 cells; assay type: cell-based; conditions: Homo sapiens, 5 hours treatment
Method: as §1, §2, §3, §4, §5, §6, §7, §8, §9, §10, §11, §12

Aβ-42 = Aβ-42 MSD 3-plex ELISA, conditioned media of 2B7 cells; assay type: cell-based; conditions: Homo sapiens, 5 hours treatment
Method: as §1, §2, §3, §4, §5, §6, §7, §8, §9, §10, §11, §12

[1] = inflection of dose response curve, read-out: Aβ 40 DR IC50 Inflection
[2] = inflection of dose response curve, read-out: Aβ 42 DR IC50 Inflection
[3] = inflection of dose response curve, read-out: Aβ 38 DR IC50 Inflection

| SMILES | %42 lowering 10 hr (Aβ 42) | %42 lowering 24 hr (Aβ 42; 24 hr) | IC50 (Aβ-38; read-out: Aβ 38 IC50) [nM] | IC50 (Aβ-40; [1]) [nM] | IC50 (Aβ-40; read-out: Aβ 40 IC50) [nM] | IC50 (Aβ-42; [2]) [nM] | IC50 (Aβ-42; read-out: Aβ 42 IC50) [nM] | IC50 (Aβ-38; [3]) [nM] |
| --- | --- | --- | --- | --- | --- | --- | --- | --- |
| CCO[C@@H]([C@H]1C[C@@H](C)[C@H]2[C@H](O1)[C@H](O)[C@@]1(C)[C@@H]3CC[C@H]4C(C)(C)[C@@H](O[C@H]5CN(CC6CN(CCOC)C6)CCO5)CC[C@@]45C[C@@]35CC[C@]21C)C(C)(C)O [Compound I-20] | A^a (% 42 lowering of under 15%) | – | – | – | – | – | – | – |
| CCO[C@@H]([C@H]1C[C@@H](C)[C@H]2[C@H](O1)[C@H](O)[C@@]1(C)[C@@H]3CC[C@H]4C(C)(C)[C@@H](O[C@H]5CN(CC6CN(CC(C)(C)O)C6)CCO5)CC[C@@]45C[C@@]35CC[C@]21C)C(C)(C)O [Compound I-24] | A^a (% 42 lowering of under 15%) | C^a (% 42 lowering of 21-25%) | – | – | – | – | – | – |
| CCO[C@@H]([C@H]1C[C@@H](C)[C@H]2[C@H](O1)[C@H](O)[C@@]1(C)[C@@H]3CC[C@H]4C(C)(C)[C@@H](O[C@H]5CN(CC6CN(C7CCC7)C6)CCO5)CC[C@@]45C[C@@]35CC[C@]21C)C(C)(C)O [Compound I-23] | – | – | 100 to 500 | > 5000 | 1000 to 5000 | 100 to 500 | 100 to 500 | – |
| CCO[C@@H]([C@H]1C[C@@H](C)[C@H]2[C@H](O1)[C@H](O)[C@@]1(C)[C@@H]3CC[C@H]4C(C)(C)[C@@H](O[C@H]5CN(CC6CN(CC7(C)COC7)C6)CCO5)CC[C@@]45C[C@@]35CC[C@]21C)C(C)(C)O [Compound I-26] | – | – | 501 to 1000 | 1000 to 5000 | 1000 to 5000 | 100 to 500 | 100 to 500 | 1000 to 5000 |
| CCO[C@@H]([C@H]1C[C@@H](C)[C@H]2[C@H](O1)[C@H](O)[C@@]1(C)[C@@H]3CC[C@H]4C(C)(C)[C@@H](O[C@H]5CN(CCN(C)C)CCO5)CC[C@@]45C[C@@]35CC[C@]21C)C(C)(C)O [Compound I-59] | – | – | 501 to 1000 | – | 1000 to 5000 | 100 to 500 | 100 to 500 | – |
| CCO[C@@H]([C@H]1C[C@@H](C)[C@H]2[C@H](O1)[C@H](O)[C@@]1(C)[C@@H]3CC[C@H]4C(C)(C)[C@@H](O[C@H]5CN(CCN6CC(F)C6)CCO5)CC[C@@]45C[C@@]35CC[C@]21C)C(C)(C)O [Compound I-63] | – | – | 501 to 1000 | 1000 to 5000 | 1000 to 5000 | 100 to 500 | 100 to 500 | – |
| CCO[C@@H]([C@H]1C[C@@H](C)[C@H]2[C@H](O1)[C@H](O)[C@@]1(C)[C@@H]3CC[C@H]4C(C)(C)[C@@H](O[C@H]5CN(C6(C)CN(C)C6)CCO5)CC[C@@]45C[C@@]35CC[C@]21C)C(C)(C)O [Compound I-31] | – | – | 100 to 500 | – | 1000 to 5000 | < 100 | < 100 | – |
| CCO[C@@H]([C@H]1C[C@@H](C)[C@H]2[C@H](O1)[C@H](O)[C@@]1(C)[C@@H]3CC[C@H]4C(C)(C)[C@@H](O[C@H]5CN(CC6(O)CN(C7COC7)C6)CCO5)CC[C@@]45C[C@@]35CC[C@]21C)C(C)(C)O [Compound I-45] | – | – | 100 to 500 | – | 1000 to 5000 | 100 to 500 | 100 to 500 | – |
| CCO[C@@H]([C@H]1C[C@@H](C)[C@H]2[C@H](O1)[C@H](O)[C@@]1(C)[C@@H]3CC[C@H]4C(C)(C)[C@@H](O[C@H]5CN(CC6(O)CN(C)C6)CCO5)CC[C@@]45C[C@@]35CC[C@]21C)C(C)(C)O [Compound I-42] | – | – | 100 to 500 | – | 501 to 1000 | < 100 | < 100 | – |
| CCO[C@@H]([C@H]1C[C@@H](C)[C@H]2[C@H](O1)[C@H](O)[C@@]1(C)[C@@H]3CC[C@H]4C(C)(C)[C@@H](O[C@H]5CN([C@H]6CCN(CC)C6=O)CCO5)CC[C@@]45C[C@@]35CC[C@]21C)C(C)(C)O [Compound I-1] | – | – | 501 to 1000 | > 5000 | > 5000 | 501 to 1000 | 501 to 1000 | 501 to 1000 |
| CCO[C@@H]([C@H]1C[C@@H](C)[C@H]2[C@H](O1)[C@H](O)[C@@]1(C)[C@@H]3CC[C@H]4C(C)(C)[C@@H](O[C@H]5CN(CC6(O)CN(CC(C)(C)O)C6)CCO5)CC[C@@]45C[C@@]35CC[C@]21C)C(C)(C)O [Compound I-47] | – | – | 100 to 500 | – | 1000 to 5000 | 100 to 500 | 100 to 500 | – |
| CCO[C@@H]([C@H]1C[C@@H](C)[C@H]2[C@H](O1)[C@H](O)[C@@]1(C)[C@@H]3CC[C@H]4C(C)(C)[C@@H](O[C@H]5CN(CC6CN(CC(C)(C)C)C6)CCO5)CC[C@@]45C[C@@]35CC[C@]21C)C(C)(C)O [Compound I-18] | – | – | 501 to 1000 | 1000 to 5000 | 1000 to 5000 | 100 to 500 | 100 to 500 | – |
| CCO[C@@H]([C@H]1C[C@@H](C)[C@H]2[C@H](O1)[C@H](O)[C@@]1(C)[C@@H]3CC[C@H]4C(C)(C)[C@@H](O[C@H]5CN(CCN6CC(OC)C6)CCO5)CC[C@@]45C[C@@]35CC[C@]21C)C(C)(C)O [Compound I-62] | – | – | 501 to 1000 | – | 1000 to 5000 | 100 to 500 | 100 to 500 | – |
| CCO[C@@H]([C@H]1C[C@@H](C)[C@H]2[C@H](O1)[C@H](O)[C@@]1(C)[C@@H]3CC[C@H]4C(C)(C)[C@@H](O[C@H]5CN(C6CN(CC(C)(C)C)C6)CCO5)CC[C@@]45C[C@@]35CC[C@]21C)C(C)(C)O [Compound I-16] | – | – | 501 to 1000 | – | 1000 to 5000 | 100 to 500 | 100 to 500 | – |
| CCO[C@@H]([C@H]1C[C@@H](C)[C@H]2[C@H](O1)[C@H](O)[C@@]1(C)[C@@H]3CC[C@H]4C(C)(C)[C@@H](O[C@H]5CN(C6CN(C(C)(C)C)C6)CCO5)CC[C@@]45C[C@@]35CC[C@]21C)C(C)(C)O [Compound I-14] | – | – | 100 to 500 | – | 1000 to 5000 | < 100 | < 100 | – |
| CCO[C@@H]([C@H]1C[C@@H](C)[C@H]2[C@H](O1)[C@H](O)[C@@]1(C)[C@@H]3CC[C@H]4C(C)(C)[C@@H](O[C@H]5CN(C6CCN(C)CC6)CCO5)CC[C@@]45C[C@@]35CC[C@]21C)C(C)(C)O [Compound I-29] | – | – | 100 to 500 | – | 1000 to 5000 | < 100 | < 100 | – |
| CCO[C@@H]([C@H]1C[C@@H](C)[C@H]2[C@H](O1)[C@H](O)[C@@]1(C)[C@@H]3CC[C@H]4C(C)(C)[C@@H](O[C@H]5CN(C6(C)CN(C7CCC7)C6)CCO5)CC[C@@]45C[C@@]35CC[C@]21C)C(C)(C)O [Compound I-27] | – | – | 100 to 500 | – | 1000 to 5000 | < 100 | 100 to 500 | – |
